The values below are quoted from earlier work in patent US20250041332A1, “SYSTEMIC INJECTION OF SUPERHEATED PERFLUOROCARBON EMULSION TO IMPROVE VENTILATION AND REDUCE VENTILATOR-INDUCED LUNG INJURY” (THE BOARD OF REGENTS OF THE UNIVERSITY OF TEXAS SYSTEM, priority 2021, published 2025).

For data set [1] the following is noted: intravenous.

Like-named read-outs stand apart in the source and are kept apart here.

On to `FC(F)(F)C(F)(F)C(F)(F)C(F)(F)C(F)(F)C(F)(F)C(F)(F)C(F)(F)Br` [PFOB, perfluorooctyl bromide], for which the “Time in which half the dose is recovered from the exhaled gas” value in data set [1] is 3 to 12 days.
On to `FC(F)(F)C(F)(F)C(F)(F)C(F)(F)F` [perfluorobutane], for which the Vapor pressure entry reads like this: (at 25° C.) “about 330.3 kPa”; (temperature not given) “approximately 330 kPa”.
For `FC(F)(F)C(F)(F)C(F)(F)C(F)(F)C(F)(F)F` [perfluoropentane], the Vapor pressure entry (at 25° C.) is on record as “about 83.99 kPa”.
Turning to `FC(F)(F)C(F)(F)C(F)(F)F` [perfluoropropane], where the note is “at 21.1° C.”, the Vapor pressure result is recorded as “about 792 kPa”.
